Results published in patent US12383544B2, “Methods for the treatment of polycystic kidney disease” (Galapagos NV, priority 2019, dated 2025).

What was measured:
wild type human CFTR = target: T1, wild type human CFTR (Homo sapiens, UniProt P13569); assay: Yellow Fluorescent Protein (YFP) halide assay in wild type CFTR (HEK293 cells); assay type: cell-based; conditions: HEK293 cells transfected with wild type human CFTR; 24 h incubation; 10 μM forskolin; read-out: EC50 of inhibition of WT CFTR
T1 construct: expressed in transfected cells; host or cells: HEK293
T1 sequence (P13569 whole entry): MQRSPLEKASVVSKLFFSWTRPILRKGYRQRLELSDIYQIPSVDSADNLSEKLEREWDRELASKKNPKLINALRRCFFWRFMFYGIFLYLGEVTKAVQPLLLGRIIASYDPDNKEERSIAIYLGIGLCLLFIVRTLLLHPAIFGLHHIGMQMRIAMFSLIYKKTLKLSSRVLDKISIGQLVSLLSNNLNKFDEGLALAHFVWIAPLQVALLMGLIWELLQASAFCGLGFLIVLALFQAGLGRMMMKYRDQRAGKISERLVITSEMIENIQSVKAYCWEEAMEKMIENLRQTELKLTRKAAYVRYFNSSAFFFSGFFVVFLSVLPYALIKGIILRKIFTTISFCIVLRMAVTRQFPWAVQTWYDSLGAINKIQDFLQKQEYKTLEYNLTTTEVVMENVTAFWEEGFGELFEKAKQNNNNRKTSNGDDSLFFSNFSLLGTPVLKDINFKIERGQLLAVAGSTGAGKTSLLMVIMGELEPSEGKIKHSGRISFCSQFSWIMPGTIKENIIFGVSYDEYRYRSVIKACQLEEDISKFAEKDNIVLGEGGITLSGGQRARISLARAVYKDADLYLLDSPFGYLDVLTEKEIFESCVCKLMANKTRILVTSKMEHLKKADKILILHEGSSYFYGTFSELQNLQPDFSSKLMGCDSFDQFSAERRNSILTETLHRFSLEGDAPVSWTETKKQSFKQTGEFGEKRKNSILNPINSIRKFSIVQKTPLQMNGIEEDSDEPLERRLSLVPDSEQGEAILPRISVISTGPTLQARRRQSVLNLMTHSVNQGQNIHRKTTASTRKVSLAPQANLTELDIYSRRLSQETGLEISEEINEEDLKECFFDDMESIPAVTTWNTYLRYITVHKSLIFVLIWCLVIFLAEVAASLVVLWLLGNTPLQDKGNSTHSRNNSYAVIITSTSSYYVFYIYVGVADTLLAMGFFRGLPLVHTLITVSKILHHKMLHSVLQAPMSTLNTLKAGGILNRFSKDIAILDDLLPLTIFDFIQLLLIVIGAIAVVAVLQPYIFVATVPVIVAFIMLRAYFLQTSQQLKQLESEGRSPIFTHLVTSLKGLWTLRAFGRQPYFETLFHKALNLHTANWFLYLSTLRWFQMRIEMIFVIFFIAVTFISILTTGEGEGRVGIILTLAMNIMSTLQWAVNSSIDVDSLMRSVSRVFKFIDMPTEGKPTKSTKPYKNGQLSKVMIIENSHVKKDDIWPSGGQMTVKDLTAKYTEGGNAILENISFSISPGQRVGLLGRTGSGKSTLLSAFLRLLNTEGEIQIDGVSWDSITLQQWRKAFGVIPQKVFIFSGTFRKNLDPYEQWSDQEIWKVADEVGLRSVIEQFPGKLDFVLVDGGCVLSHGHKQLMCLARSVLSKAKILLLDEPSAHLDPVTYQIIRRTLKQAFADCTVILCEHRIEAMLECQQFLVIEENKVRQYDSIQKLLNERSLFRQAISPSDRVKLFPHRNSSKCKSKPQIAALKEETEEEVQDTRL
Procedure: To evaluate the ability of a test compound to inhibit wild type CFTR, a YFP halide assay using HEK293 cells transfected with wild type human CFTR was developed. (Galietta, Jayaraman, and Verkman 2001) Cells were incubated during 24 h with a dose range of test compound and the resulting wild type CFTR activity was plotted to obtain the EC50.
Test compounds were also added together with forskolin to wild type CFTR expressing cells in order to fully active the available CFTR at the plasma membrane and determine accurately the inhibition of the channel activity.
HEK293 cells were transfected with 10 to 80 ng of wild type CFTR and 20 ng of plasmid encoding YFP (H148Q/I152L/F47L) using jetPEI (Polyplus transfection). Directly after transfection, cells were seeded in black 96-well plates coated with Poly-D-lysine at a density of 70,000 cells per well. The next day, cells were treated with corrector(s) for 24 h. After this incubation period, cells were washed twice with DPBS with Ca^2+ and Mg^2+. Subsequently, cells were treated with 10 μM forskolin and the desired concentration of potentiator in a volume of 40 μl and incubated at room temperature for 10 min, a time point optimized in previous experiments resulting in a good window (positive control/negative control >2) and signal to background ratio. YFP fluorescence was measured using an EnVision plate reader (PerkinElmer). […]

wt CFTR (CFTR channel) = target: T2, wt CFTR (CFTR channel) (Homo sapiens, UniProt P13569); assay: TECC assay on normal primary human bronchial epithelial (HBE) cells; assay type: cell-based; conditions: 0.3 μM forskolin
T2 construct: evaluate compounds on normal primary bronchial epithelial cells (HBE cells); endogenous in cells; host or cells: normal primary human bronchial epithelial (HBE) cells from donor lungs
T2 sequence (P13569 whole entry): as above
Procedure: The TECC assay is used to evaluate compounds on normal primary bronchial epithelial cells (HBE cells), which are closer to physiological conditions
Bronchial epithelial cells isolated from transplanted lungs from normal (wt CFTR) were isolated from lungs obtained from donors undergoing a planned transplantation. These primary cells were cultured directly on type IV collagen-coated polycarbonate Transwell supports with a diameter of 6.5 mm and pore size of 0.4 μm (Costar, #3397) for 18 to 25 days in air liquid (ali) interface essentially as previously described for TECC. (Fulcher et al. 2005)
Trans-epithelial clamp circuit (TECC) recordings were performed using the TECC instrument developed and sold by EP Design (Bertem, Belgium). During the recording, the epithelial cells were bathed in a NaCl-Ringer solution (120 mM NaCl, 20 mM HEPES, 1.2 mM CaCl2, 1.2 mM MgCl2, 0.8 mM KH2PO4, 0.8 mM K2HPO4, 5 mM glucose, pH 7.4) on both the basolateral (640 μl) and the apical side (160 μl) and kept at 37° C. Apical amiloride was used to inhibit the endogenous ENaC currents (100 μM) while forskolin (0.3 μM) was applied on both the apical and basolateral sides to stimulate CFTR. All triggers and compounds used during the experiment were first dissolved in DMSO to a 1000× concentrated solution, just prior to treatment a 10× stock was prepared in the NaCl-Ringer solution which was used for addition of the correct concentration of trigger and or compound during the experiment. Cells were treated with test compounds for 24 hours before recording and this treatment was repeated in the TECC buffer prior to the electrophysiological recording. Measurements were done during a 20-min timeframe with recordings every 2 min. The transepithelial potential (PD) and transepithelial resistance (Rt) were measured in an open circuit and transformed to Ieq using Ohm's law. The maximal increase in Ieq (Δ Ieq) was used as a measure for the increased CFTR activity.

[1] = system: PKD1^flox/flox / ubiquitous CreER^T2 mice; assay: In vivo ADPKD mice model in combination with tolvaptan (meta-analysis of two experiments)
Description: The ADPKD mice model is based on PKD1^flox/flox (with lox sites flanking exons 2-4)/ubiquitous CreER^T2 mice in which the PKD1 gene is ubiquitously knock-out by the activation of the Cre recombinase by treatment of the mice with Tamoxifen at day 12 after birth (in nursing female). Homozygotous knock-out of the PKD1 gene leads to the rapid formation of kidney cysts mimicking to a certain extend the development of ADPKD disease in human.
Before experimentations, mouse colonies of PKD1^flox/flox (with lox sites flanking exons 2-4)/ubiquitous CreER^T2 were maintained at Charles River Laboratories (France). To induce Cre recombinase activity, tamoxifen (60 mg/kg in sunflower oil) was delivered in nursing females by intraperitoneal injection at postnatal day 12. Subsequently, tamoxifen-containing milk was administered to pups. Treatments started at 4 weeks of age for 11 weeks. Tolvaptan was incorporated in diet (0.1%) and given alone or in combination with Cpd 2, administered at 250 mg/kg, q. d., p.o. At initiation of treatment and on a regular basis during the study, serum was collected to determine levels of blood urea nitrogen (BUN) on a Spotchem bioanalyzer. At necropsy, kidneys were collected and weighed to determine kidney weight/body weight ratio.
Two independent experiments were conducted.
A two-way ANOVA with Dunnett post-hoc multiple comparisons of all experimental groups versus the diseased group has been applied to the log Fold Change (log FC) of BUN ([…]) at sacrifice (Week 15) versus BUN at Week 4 as function of Group and Study.
The mean fold change at week 15 (sacrifice) vs week 4 (treatment initiation) is calculated, assuming a 100% change for the diseased group (untreated).

Row | SMILES | EC50 (wild type human CFTR) [µM] | pIC50 (wt CFTR (CFTR channel)) | IC50 (wt CFTR (CFTR channel); read-out: IC50 value (resulting from pIC50) (converted)) [µM] | BUN Mean fold changes on week 15 vs week 4 ([1]; Cpd 2 250 mg/kg q.d. p.o., Tolvaptan 0.1% in diet, treatment from 4 weeks of age for 11 weeks) | BUN fold change vs the diseased group (in words) ([1]; administered from week 4 to week 15) | BUN % of Mean Diseased fold change ([1]; week 15 vs week 4, diseased group = 100, Cpd 2 250 mg/kg q.d. p.o., Tolvaptan 0.1% in diet) [%]
1 | COC1CCN(C2CCN(c3cc(C(=O)NS(=O)(=O)N(C)C)nc4c3c(C3CCC3)nn4-c3ccc(F)cc3)CC2)CC1 [Cpd 2] | 0.102 | 7.50 | 0.032 | – | – | –
2 | Cc1ccccc1C(=O)Nc1ccc(C(=O)N2CCCC(O)c3cc(Cl)ccc32)c(C)c1 (stereo not drawn) [Tolvaptan, tolvaptan] | – | – | – | 1.889 | did not result in a significant fold change | 80.7
